For two molecules, IC50 results are on record in ChEMBL document CHEMBL1201861, “Genomics of Drug Sensitity in Cancer screening data, Wellcome Trust Sanger Institute”.

Common to all, as to assay type: functional, cell-based
The test system of test [1] is DG-75. The test is described as follows: cells. Conditions: Homo sapiens.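 Note: growth inhibition of DG-75 cells, read out with a cell viability assay.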
Description: SANGER: Inhibition of human DG-75 cell growth in a cell viability assay.
The test system of test [2] is EHEB. The test is described as follows: cells. Conditions: Homo sapiens.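 Note: growth inhibition of human EHEB cells, read out with a cell viability assay.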
Description: SANGER: Inhibition of human EHEB cell growth in a cell viability assay.
Test [3] concerns Kasumi 1. The test is described as follows: cells. Particulars: Homo sapiens.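 Note: growth inhibition of human Kasumi-1 cells, read out by a cell viability assay.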
Description: SANGER: Inhibition of human KASUMI-1 cell growth in a cell viability assay.
In test [4] the test system is LP-1. Kind of test: cells. Particulars: Homo sapiens.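 Note: growth inhibition of human LP-1 cells, with the read-out taken from a cell viability assay.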
Description: SANGER: Inhibition of human LP-1 cell growth in a cell viability assay.
In test [5] the test system is NB7. The test is described as follows: cells. Conditions: Homo sapiens.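 Note: growth inhibition of NB7 cells, read out with a cell viability assay.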
Description: SANGER: Inhibition of human NB7 cell growth in a cell viability assay.
The test system of test [6] is NCI-H187. The test is described as follows: cells. Particulars: Homo sapiens.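 Note: growth inhibition of NCI-H187 cells, read out as cell viability.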
Description: SANGER: Inhibition of human NCI-H187 cell growth in a cell viability assay.
Test [7] relates to NCI-H64. Kind of test: cells. Conditions: Homo sapiens.
Description: SANGER: Inhibition of human NCI-H64 cell growth in a cell viability assay.
Test [8] relates to NCI-H716. Kind of test: cells. Particulars: Homo sapiens.
Description: SANGER: Inhibition of human NCI-H716 cell growth in a cell viability assay.
In test [9] the test system is NCI-H719. Kind of test: cells. Conditions: Homo sapiens.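 Note: growth inhibition of the cultured cell line, read out with a viability assay.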
Description: SANGER: Inhibition of human NCI-H719 cell growth in a cell viability assay.
Test [10] relates to RL. The test is described as follows: cells. Conditions: Homo sapiens.
Description: SANGER: Inhibition of human RL cell growth in a cell viability assay.
Test [11] has as its system RPMI-6666. Kind of test: cells. Particulars: Homo sapiens.
Description: SANGER: Inhibition of human RPMI-6666 cell growth in a cell viability assay.
The subject of test [12] is RPMI 8402. The test is described as follows: SANGER: Inhibition of human RPMI-8402 cell growth in a cell viability assay.
Test [13] has as its system SCC-3. Kind of test: cells. Particulars: Homo sapiens.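 Note: cell viability assay measuring inhibition of SCC-3 cell growth.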
Description: SANGER: Inhibition of human SCC-3 cell growth in a cell viability assay.
In test [14] the test system is BC1 cell line. The test is described as follows: SANGER: Inhibition of human BC-1 cell growth in a cell viability assay.
The subject of test [15] is CAL-148. Kind of test: cells. Conditions: Homo sapiens.
Description: SANGER: Inhibition of human CAL-148 cell growth in a cell viability assay.
For test [16], the system named is THP-1. The test is described as follows: cells. Conditions: Homo sapiens.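 Note: growth inhibition of THP-1 cells, read out via a cell viability assay.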
Description: SANGER: Inhibition of human THP-1 cell growth in a cell viability assay.
For test [17], the system named is TUR. The test is described as follows: cells. Conditions: Homo sapiens.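 Note: growth inhibition of human TUR cells, read out with a cell viability assay.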
Description: SANGER: Inhibition of human TUR cell growth in a cell viability assay.

pIC50: −log10 of the molar value. A value given as a limit tells only on which side of the number the result lay.

What is called pIC50 is the negative decadic logarithm of the IC50, by convention in mol/L. A high value points to a low IC50. With `CCNc1cc(N[C@H]2CC[C@@H](O)CC2)nc(Nc2ccc3c(ccn3Cc3ccccc3)c2)n1`, the pIC50 in [1], in test [2], in test [3], in test [4], in [5] and in [6] was under 5.29 each time. For the same molecule, the negative-log IC50 (pIC50) is under 5.29 in test [7]; under 5.29 in test [8]; under 5.29 in test [9]; under 5.29 in test [10]; under 5.29 in test [11]; 5.46 in [12]. For the same molecule, the pIC50 in [13], in test [14], in test [15], in test [16] and in test [17] was under 5.29 in each case.
`COc1cc(C)c(Sc2cnc(NC(=O)c3ccc(CNC(C)C(C)(C)C)cc3)s2)cc1C(=O)N1CCN(C(C)=O)CC1` (centres undefined): the pIC50 in [1], in test [2], in test [3], in test [4], in test [5] and in test [6] was under 4.99 throughout. Moreover, the pIC50 in test [7], in test [8], in [9], in test [10], in [11] and in [12] was under 4.99 each time. The negative-log IC50 (pIC50) in [13] was under 4.99; in test [14], 5.04; in test [15] it was under 4.99; in [16], under 4.99; in test [17], under 4.99.
